Square brackets hold non-standard residues; d marks the D form. Peptide text beside a SMILES is read from it. * marks the point of attachment. NMeVal(N-(CH2)3COOH) = CC(C)[C@@H](C(=O)*)N(C)CCCC(=O)O; Dolaproine = CO[C@@H]([C@@H]1CCCN1)[C@@H](C)C(=O)O; Dil = CC[C@H](C)[C@H](NC)[C@@H](CC(=O)O)OC; X3 = CC(C)[C@@H](C(=O)*)N(C)CCCCCC(=O)O; NMe(benzyl) = CN(Cc1ccccc1)*; Morpholide = C1CN(*)CCO1; X1 = O=C(NN*)c1ccccc1; NHBn = c1ccc(CN*)cc1; OBn = c1ccc(CO*)cc1
Experiments:
[1] = Cell permeability, flux assay using Caco-2 cells; type: in vitro ADME; details: human, basal to apical, 2 hours incubation
Method: B-5. Determination of Cell Permeability:
The cell permeability of a substance can be analyzed by means of in vitro tests in a flux assay using Caco-2-cells [M. D. Troutman and D. R. Thakker, Pharm. Res. 20 (8), 1210-1224 (2003)]. For this analysis the cells were cultured on 24 membrane filter plates for 15 to 16 days. In order to determine permeation the test substance in question was given either apical (A) to a HEPES buffer or basal (B) on the cells and incubated for 2 hours. The samples were withdrawn after 0 and 2 hours from the cis and trans compartments. The samples were separated by means of HPLC (Agilent 1200, Böblingen, Germany) using reverse-phase columns. The HPLC system was coupled to a triple quadropol mass spectrometer API 4000 (Applied Biosystems Applera, Darmstadt, Germany) via a turbo ion spray. The permeability was evaluated by means of the Papp value which was calculated with the help of the formula published by Schwab et al. [D. Schwab et al., J. Med. Chem. 46, 1716-1725 (2003)]. A substance was classified as active if the ratio of Papp (B-a) to Papp (A-B) was >2 or <0.5.
The permeability from B to A [Papp^(B-A)] is particularly important for toxophores which are being released intracellular: The lower the permeability the longer the residence time of the substance in the cell after intracellular release and, consequently, the more time available for interaction with the biochemical target (here: tubulin).

HT-29 wt cell line = assay: Anti-proliferative effect on HT-29 wt cell line (MTT assay); type: cell-based, human; details: Homo sapiens, HT-29 wt cells, incubation 48 to 96 hours, medium with 10% FCS
Method: B-2. Determination of Anti-proliferative Effects of HT-29 wt Cell Line:
After 18 hours the seed medium was replaced by a fresh medium with 10% FCS. The treatment started with measuring out the respective test substance. The dose-response curves were determined of the investigative substances with a concentration of 10^−5 M to 10^−14 M (1:10 dilutions). Incubation times of between 48 hours and 96 hours were chosen. The proliferation was detected by means of the MTT assay (ATCC, Manassas, Va., USA, catalogue no. 30-1010K). After completion of selected incubation period the MTT reagent was incubated with the cells for 4 hours before lysis occurred over night by measuring out the detergent. The created stain was detected at 570 nm. The proliferation of the cells, which were treated identically to the other cells but without the test substance, was defined as the 100% value. The data obtained from this test represent triple determinations and at least two experiments had been carried out independently of each other.

[2] = system: human renal carcinoma cell line 786-0; assay: Anti-proliferative effect on renal cell carcinoma 786-0 cell line (MTT assay); type: cell-based; details: Homo sapiens, 786-0 cells, incubation 48 to 96 hours, serum free medium or 2% FCS
Method: B-1. Determination of Anti-proliferative Effects of Renal Cell Carcinoma 786-0 Cell Line:
A defined number of cells of the human renal carcinoma cell line 786-0 were cultured in a 96 well micro titer plate in rich medium (2500 or 7.000 cells/well) and then incubated over night at 37° C./5% CO2. After 18 hours the seed medium was replaced by a serum free medium or medium with 2% FCS. The treatment began with measuring out the respective test substances in varying concentrations (10^−5 M to 10^−14 M). Incubation times of between 48 hours and 96 hours were chosen. The proliferation was determined by means of the MTT assay (ATCC, Manassas, Va., USA, catalogue no. 30-1010K). After completion of incubation period the MTT reagent was incubated with the cells for 4 hours before lysis occurred over night by measuring out the detergent. The created stain was detected at 570 nm. The proliferation of the cells, which were treated identically to the other cells but without the test substance was defined as the 100% value. The data obtained from this test represent triple determinations and at least two experiments had been carried out independently of each other.

Row | Compound | Papp B→A at 2 h [1] | IC50 (HT-29 wt cell line) | IC50 [2]
1 | CC[C@H](C)[C@@H]([C@@H](CC(=O)N1CCC[C@H]1[C@H](OC)[C@@H](C)C(=O)N[C@@H](Cc1ccccc1)C(=O)OC)OC)N(C)C(=O)[C@@H](NC(=O)[C@H](C(C)C)N(C)CCCC(=O)O)C(C)C [Example 7] ({NMeVal(N-(CH2)3COOH)}-V[Dil][Dolaproine]F-OMe) | 1.8 ×10⁻⁶ cm/s | – | –
2 | CC[C@H](C)[C@@H]([C@@H](CC(=O)N1CCC[C@H]1[C@H](OC)[C@@H](C)C(=O)N[C@@H](Cc1c[nH]c2ccccc12)C(=O)OCc1ccccc1)OC)N(C)C(=O)[C@@H](NC(=O)[C@H](C(C)C)N(C)CCCC(=O)O)C(C)C [Example 8, N-(3-carboxypropyl)-N-methyl-L-valyl-N-[(3R,4S,5S)-1-{(2S)-2-[(1R,2R)-3-{[(2S)-1-(benzyloxy)-3-(1H-indol-3-yl)-1-oxopropane-2-yl]amino}-1-methoxy-2-methyl-3-oxopropyl]pyrrolidin-1-yl}-3-methoxy-5-methyl-1-oxoheptan-4-yl]-N-methyl-L-valinamide] ({NMeVal(N-(CH2)3COOH)}-V[Dil][Dolaproine]W-OBn) | 2.2 ×10⁻⁶ cm/s | 0.5 nM | 5.2 nM
3 | CC[C@H](C)[C@@H]([C@@H](CC(=O)N1CCC[C@H]1[C@H](OC)[C@@H](C)C(=O)N[C@@H](Cc1ccccc1)C(=O)N(C)Cc1ccccc1)OC)N(C)C(=O)[C@@H](NC(=O)[C@H](C(C)C)N(C)CCCC(=O)O)C(C)C [Example 9, N-(3-carboxypropyl)-N-methyl-L-valyl-N-[(3R,4S,5S)-1-{(2S)-2-[(1R,2R)-3-({(2S)-1-[benzyl(methyl)amino]-1-oxo-3-phenylpropane-2-yl}amino)-1-methoxy-2-methyl-3-oxopropyl]pyrrolidin-1-yl}-3-methoxy-5-methyl-1-oxoheptan-4-yl]-N-methyl-L-valinamide] ({NMeVal(N-(CH2)3COOH)}-V[Dil][Dolaproine]F-{NMe(benzyl)}) | – | 4.4 nM | 53 nM
4 | CCOC(=O)[C@]1(NC(=O)[C@H](C)[C@@H](OC)[C@@H]2CCCN2C(=O)C[C@@H](OC)[C@H]([C@@H](C)CC)N(C)C(=O)[C@@H](NC(=O)[C@H](C(C)C)N(C)CCCC(=O)O)C(C)C)C[C@@H]1c1ccccc1 [Example 12, N-(3-carboxypropyl)-N-methyl-L-valyl-N-[(3R,4S,5S)-1-{(2S)-2-[(1R,2R)-3-{[(1S,2R)-1-(ethoxycarbonyl)-2-phenylcyclopropyl]amino}-1-methoxy-2-methyl-3-oxopropyl]pyrrolidin-1-yl}-3-methoxy-5-methyl-1-oxoheptan-4-yl]-N-methyl-L-valinamide] | 1.5 ×10⁻⁶ cm/s | – | 13 nM
5 | CC[C@H](C)[C@@H]([C@@H](CC(=O)N1CCC[C@H]1[C@H](OC)[C@@H](C)C(=O)N[C@@H](Cc1ccccc1)C(=O)NNC(=O)c1ccccc1)OC)N(C)C(=O)[C@@H](NC(=O)[C@H](C(C)C)N(C)CCCC(=O)O)C(C)C [Example 14, (3R,4S,7S,10S)-3-(2-{(2S)-2-[(1R,2R)-3-{[(2S)-1-(2-benzoylhydrazino)-1-oxo-3-phenylpropane-2yl]amino}-1-methoxy-2-methyl-3-oxopropyl]pyrrolidin-1-yl}-2-oxoethyl)-4-[(2S)-butane-2-yl]-7,10-diisopropyl-5,11-dimethyl-6,9-dioxo-2-oxa-5,8,11-triazapentadecan-15-acid] ({NMeVal(N-(CH2)3COOH)}-V[Dil][Dolaproine]F-X1) | 0.3 ×10⁻⁶ cm/s | – | 59 nM
6 | CC[C@H](C)[C@@H]([C@@H](CC(=O)N1CCC[C@H]1[C@H](OC)[C@@H](C)C(=O)N[C@@H](Cc1c[nH]c2ccccc12)C(=O)NCc1ccccc1)OC)N(C)C(=O)[C@@H](NC(=O)[C@H](C(C)C)N(C)CCCC(=O)O)C(C)C [Example 16, N-(3-carboxypropyl)-N-methyl-L-valyl-N-[(3R,4S,5S)-1-{(2S)-2-[(1R,2R)-3-{[(2S)-1-(benzyl-amino)-3-(1H-indol-3-yl)-1-oxopropane-2-yl]amino}-1-methoxy-2-methyl-3-oxopropyl]pyrrolidin-1-yl}-3-methoxy-5-methyl-1-oxoheptan-4-yl]-N-methyl-L-valinamide] ({NMeVal(N-(CH2)3COOH)}-V[Dil][Dolaproine]W-NHBn) | – | 0.1 nM | 12 nM
7 | CC[C@H](C)[C@@H]([C@@H](CC(=O)N1CCC[C@H]1[C@H](OC)[C@@H](C)C(=O)N[C@@]1(C(N)=O)C[C@@H]1c1ccccc1)OC)N(C)C(=O)[C@@H](NC(=O)[C@H](C(C)C)N(C)CCCC(=O)O)C(C)C [Example 17, N-(3-carboxypropyl)-N-methyl-L-valyl-N-[(3R,4S,5S)-1-{(2S)-2-[(1R,2R)-3-{[(1S,2R)-1-carbamoyl-2-phenylcyclopropyl]amino}-1-methoxy-2-methyl-3-oxopropyl]pyrrolidin-1-yl}-3-methoxy-5-methyl-1-oxoheptan-4-yl]-N-methyl-L-valinamide] | 0.2 ×10⁻⁶ cm/s | – | –
8 | CC[C@H](C)[C@@H]([C@@H](CC(=O)N1CCC[C@H]1[C@H](OC)[C@@H](C)C(=O)N[C@@H](Cc1c[nH]c2ccccc12)C(N)=O)OC)N(C)C(=O)[C@@H](NC(=O)[C@H](C(C)C)N(C)CCCCCC(=O)O)C(C)C [Example 19] (X3-V[Dil][Dolaproine]W-NH2) | 0.2 ×10⁻⁶ cm/s | – | –
9 | CC[C@H](C)[C@@H]([C@@H](CC(=O)N1CCC[C@H]1[C@H](OC)[C@@H](C)C(=O)N[C@@H](Cc1ccccc1)C(=O)N1CCOCC1)OC)N(C)C(=O)[C@@H](NC(=O)[C@H](C(C)C)N(C)CCCC(=O)O)C(C)C [Example 23, N-(3-carboxypropyl)-N-methyl-L-valyl-N-[(3R,4S,5S)-3-methoxy-1-{(2S)-2-[(1R,2R)-1-methoxy-2-methyl-3-{[(2S)-1-(morpholin-4-yl)-1-oxo-3-phenylpropane-2-yl]amino}-3-oxopropyl]pyrrolidin-1-yl}-5-methyl-1-oxoheptan-4-yl]-N-methyl-L-valinamide] ({NMeVal(N-(CH2)3COOH)}-V[Dil][Dolaproine]F-Morpholide) | 0.2 ×10⁻⁶ cm/s | – | –
10 | CC[C@H](C)[C@@H]([C@@H](CC(=O)N1CCC[C@H]1[C@H](OC)[C@@H](C)C(=O)N[C@H](C(=O)NCc1ccccc1)[C@@H](C)O)OC)N(C)C(=O)[C@@H](NC(=O)[C@H](C(C)C)N(C)CCCC(=O)O)C(C)C [Example 25, N-(3-carboxypropyl)-N-methyl-L-valyl-N-[(3R,4S,5S)-1-{(2S)-2-[(1R,2R)-3-{[(2S,3R)-1-(benzylamino)-3-hydroxy-1-oxobutane-2-yl]amino}-1-methoxy-2-methyl-3-oxopropyl]pyrrolidin-1-yl}-3-methoxy-5-methyl-1-oxoheptan-4-yl]-N-methyl-L-valinamide] ({NMeVal(N-(CH2)3COOH)}-V[Dil][Dolaproine]T-NHBn) | – | 1.5 nM | 164 nM
11 | CC[C@H](C)[C@@H]([C@@H](CC(=O)N1CCC[C@H]1[C@H](OC)[C@@H](C)C(=O)N[C@H](COCc1ccc(C(=O)OC)cc1)Cc1ccccc1)OC)N(C)C(=O)[C@@H](NC(=O)[C@H](C(C)C)N(C)CCCC(=O)O)C(C)C [Example 26, N-(3-carboxypropyl)-N-methyl-L-valyl-N-[(3R,4S,5S)-3-methoxy-1-{(2S)-2-[(1R,2R)-1-methoxy-3-{[(2S)-1-{[4-(methoxycarbonyl)benzyl]oxy}-3-phenylpropane-2-yl]amino}-2-methyl-3-oxopropyl]pyrrolidin-1-yl}-5-methyl-1-oxoheptan-4-yl]-N-methyl-L-valinamide] | – | 1.5 nM | 10 nM

Reference: patent US8987209B2, “N-carboxyalkyl-auristatin and the use thereof” (Seattle Genetics, Inc., priority 2010, dated 2015)
